{"source": "patent US12558340B2", "about": "“ANAVEX2-73 for the treatment of genetic neurodevelopmental disorders” (ANAVEX LIFE SCIENCES CORP., priority 2019, dated 2026)", "key": {"[1]": {"tested_on": "subject diagnosed with Rett Syndrome", "assay": "Example 6: liquid formulation given to a subject with Rett Syndrome", "format": "in vivo, human", "conditions": "1 mL of a liquid formulation (0.2 mg/mL)", "method": "A subject, diagnosed with Rett Syndrome is administered 1 mL of a liquid formulation (0.2 mg/mL)."}, "pAkt": {"tested_on": "pAkt", "assay": "pAkt levels in peripheral lymphocytes of Fmr1 KO2 mice (flow cytometry)", "format": "in vivo", "method": "(§1) In the aforementioned study by Reyes et al., ANAVEX2-73 or saline were administered twice daily at a dose of 1 mg/kg IP, to 2-month-old Fmr1 KO2 mice and wild type counterparts (N=10 mice per group, 40 mice total; for blood sample analyses: 5-7 mice per group) for two weeks. Brain samples were harvested for biochemical and molecular studies, blood samples were collected at baseline and on the last day of the behavioral assessments. Complementary cell signaling analyses were also conducted. These analyses were important because of their relevance to both preclinical and clinical research in FXS. Peripheral lymphocytes were isolated and stimulated with Phorbol-12-Myristate-13-Acetate in a buffer without phosphatase inhibitors but with U0126 (inhibitor of MAPK kinase). […] Resuspended cells were analyzed in a Coulter XL3 flow cytometer. […] Levels of pAkt and pERK were first characterized in terms of distribution, by the Shapiro-Wilk test of normality and Levene's and Bartlett's tests, which determined that all data were distributed normally and had equal variances. […] Once a significant difference was found, a two-way univariate ANOVA with genotype and treatment as between-subject factors, followed by a Tukey's post-hoc test, evaluated the differences between drug-treated and vehicle-treated WT and Fmr1 KO2 mice. […]"}, "BDNF": {"tested_on": "BDNF", "conditions": "1 mg/kg IP twice daily for two weeks; cited from earlier work"}, "[2]": {"tested_on": "subject diagnosed with Rett Syndrome", "assay": "Example 1: liquid formulation given to a subject with Rett Syndrome", "format": "in vivo, human", "conditions": "5 mL of a liquid formulation (0.2 mg/mL)", "method": "A subject diagnosed with Rett Syndrome was administered 5 mL of a liquid formulation (0.2 mg/mL)."}, "physchem": {"assay": "physchem", "format": "physicochemical", "text": "Dosage formulations used in the disclosed methods comprise a therapeutically effective amount of ANAVEX2-73, the crystalline HCI salt of tetrahydro-N,N-dimethyl-2,2-diphenyl-3-furanmethanamine, or tetrahydro-N,N-dimethyl-2,2-diphenyl-3-furanmethanamine hydrochloride (IUPAC name: 1-(2,2-diphenyloxolan-3-yl)-A/,A/-dimethylmethanamine hydrochloride). […] Thus ANAVEX2-73 (used herein to refer to the HCI salt or the free base) is highly amenable to incorporation in the dosage formulations disclosed herein. For example, ANAVEX2-73 as either the HCI salt or the free base has a relatively low molecular weight (<400 Da), and is thus well suited for transmucosal or transdermal delivery, or rapid oral delivery. ANAVEX2-73 has a pKa around 8-9, which also makes it well-suited for transmucosal delivery. Therapeutically effective doses of ANAVEX2-73 are well suited for various thin film formulations, including oral and transdermal thin film formulations."}, "[3]": {"tested_on": "glutamate biomarker in plasma", "assay": "Example 5: glutamate biomarker in plasma of Rett Syndrome subjects", "format": "in vivo, human", "conditions": "week 0 vs week 7; Wilcoxon p (2-tailed)=0.046", "text": "In one aspect, the method further comprises measuring, or having measured or obtained a baseline biomarker level in the subject prior to treatment with ANAVEX2-73 as described herein, wherein the biomarker comprises plasma glutamate, gamma aminobutyric acid (GABA), PI3K, pAkt, mTOR, pMAPK, pERK, or any combinations thereof, and measuring or having measured or obtained at least a second level of the biomarker following a period of treatment with ANAVEX2-73 as described herein. […]\n(§2) For efficacy, the following parameters were measured in the female subjects: Rett Syndrome Behavior Questionare (RSBQ), Clinical Global Impressions (CGI-I), hand behaviors (RSBQ), breathing problems (RSBQ), waking during sleep (RSBQ), and glutamate biomarker, and GABA biomarkers.\nEvaluation of the efficacy was measured as a comparison from baseline (week 0), week 4, and to end of treatment (week 7). Blood plasma samples were analyzed at week 0 and at week 7 to measure the levels of glutamate and GABA biomarkers. […]"}, "pERK": {"tested_on": "pERK", "assay": "pERK levels in peripheral lymphocytes of Fmr1 KO2 mice (flow cytometry)", "format": "in vivo", "conditions": "1 mg/kg IP twice daily for two weeks, 7 per group, t-test p=0.046, post-hoc p=0.096", "method": "as §1"}, "[4]": {"tested_on": "female subjects diagnosed with Rett Syndrome", "assay": "Example 5: 7-week daily treatment of Rett Syndrome subjects (RSBQ, CGI-I)", "format": "in vivo, human", "method": "Six female subjects ranging from 16 to 22 years of age diagnosed with Rett Syndrome were administered 5 mg ANAVEX2-73 liquid formulation (1 m_of a 5 mg/mI_ANAVEX2-73 solution) daily for a total daily dose of […], over a period of 7 weeks.\nas §2\nEvaluation of the efficacy was measured as a comparison from baseline (week 0), week 4, and to end of treatment (week 7). Blood plasma samples were analyzed at week 0 and at week 7 to measure the levels of glutamate and GABA biomarkers. The evaluation of efficacy used a two-tailed statistical analysis."}, "healthy male volunteers": {"tested_on": "healthy male volunteers", "conditions": "cited from earlier work"}, "[5]": {"tested_on": "Fmr1 knockout 2 mice, KO2", "conditions": "1 mg/kg IP twice daily for two weeks; cited from earlier work"}}, "data": [{"smiles": "CN(C)CC1CCOC1(c1ccccc1)c1ccccc1.Cl", "note": "(stereo not drawn) [ANAVEX2-73, tetrahydro-N,N-dimethyl-2,2-diphenyl-3-furanmethanamine hydrochloride]", "values": [{"measurement": "CGI-I index", "setting": "[1]", "value": "improvement"}, {"measurement": "Rett Syndrome Behavior Questionnaire (RSBQ)", "setting": "[1]", "value": "improvement"}, {"measurement": "pAkt levels, drug-treated vs vehicle-treated Fmr1 KO2 mice", "setting": "pAkt; 1 mg/kg IP twice daily for two weeks, 5 animals per group, p=0.01", "value": "significantly lower"}, {"measurement": "pAkt levels, drug-treated mutant mice vs vehicle-treated WT mice", "setting": "pAkt; ANOVA", "value": "comparable"}, {"measurement": "BDNF levels in the hippocampus", "setting": "BDNF", "value": "normalized"}, {"measurement": "cognition", "setting": "[2]", "value": "improvement"}, {"measurement": "motor skills", "setting": "[2]", "value": "improvement"}, {"measurement": "chemical stability", "setting": "physchem", "value": "excellent"}, {"measurement": "pKa", "setting": "physchem", "value": "8 to 9"}, {"measurement": "solubility in organic solvents", "setting": "physchem", "value": "soluble in almost all organic solvents"}, {"measurement": "water solubility", "setting": "physchem", "value": "high"}, {"measurement": "levels of glutamate biomarker in plasma", "setting": "[3]", "value": "decreased significantly"}, {"measurement": "pERK levels, drug-treated vs vehicle-treated Fmr1 KO2 mice", "setting": "pERK", "value": "mildly reduced"}, {"measurement": "RSBQ and CGI-I", "setting": "[4]; after 7 weeks, p=0.003", "value": "reduction"}, {"measurement": "improvement in the RSBQ (total score)", "setting": "[4]; all six subjects, 5 mg liquid formulation daily, week 0 vs week 7", "value": "over 30%"}, {"measurement": "breathing problems (RSBQ)", "setting": "[4]; compared to week 0, p=0.042", "value": "improvement"}, {"measurement": "hand behaviors (RSBQ)", "setting": "[4]; compared to week 0, p=0.042", "value": "improvement"}, {"measurement": "waking during sleep (RSBQ)", "setting": "[4]; compared to week 0, p=0.042", "value": "improvement"}, {"measurement": "safety and tolerability", "setting": "healthy male volunteers; ascending single oral doses of 1, 10, 30, 40, 50 and 55 mg, healthy subjects", "value": "safe and well tolerated"}, {"measurement": "observed adverse events", "setting": "healthy male volunteers; at highest doses", "value": "only moderate and reversible dizziness and headache"}, {"measurement": "minimum intolerable dose (MID)", "setting": "healthy male volunteers; human, in vivo, po", "value": 60, "unit": "mg"}, {"measurement": "serious adverse events", "setting": "healthy male volunteers; single ascending oral doses", "value": "No serious adverse events occurred"}, {"measurement": "maximum tolerable dose (MTD)", "setting": "healthy male volunteers; single oral dose, based on frequency and intensity of adverse events", "value": 55, "unit": "mg"}, {"measurement": "three neurobehavioral phenotypes (open field test, contextual fear conditioning, marble-burying)", "setting": "[5]", "value": "marked improvement or normalization"}]}]}
